Test results from patent publication US20250049860A1, “METHOD FOR ISOLATING, MAINTAINING, PROLIFERATING, AND DIFFERENTIATING MONOCLONAL CELLS DERIVED FROM HUMAN SALIVARY GLAND EPITHELIAL STEM CELLS OR PROGENITOR CELLS AND PRODUCTION METHOD FOR EXTRACELLULAR VESICLES FOR TREATING SALIVARY GLAND DISEASES” (INDUSTRY-ACADEMIC COOPERATION FOUNDATION, YONSEI UNIVERSITY, priority 2021, published 2025).

What was measured:
Format in all cases: cell-based
[1] = tested on: human salivary gland epithelial cells; experiment: Concentration screening of small molecule compounds and their combination in Dermacult (KEM); details: added in combination to KEM (Dermacult)
Protocol: Dermacult, which can stably culture human salivary gland epithelial cells in CDM, was used as the epithelial cell culture medium (keratinocyte expansion medium, KEM), and the small molecule compounds ROCK I/II inhibitor (Y-27632), TGF-beta pathway inhibitor (A83-01), and BMP pathway inhibitor (LDN193189) were added to determine the optimal concentrations at which cell characteristics were maintained and stable long-term culture was achieved, respectively (FIG. 3).
Finally, the combination experiments with different concentrations of the small molecule compounds confirmed that salivary gland epithelial cell growth was best maintained when Y-27632 10 μM, A83-01 1 μM, and LDN193189 0.1 μM were added to KEM (FIG. 4).

[2] = tested on: human salivary gland epithelial cells; experiment: Small molecule compound combination check in K-SFM; details: for result of addition to the culture: various combinations of small molecule compounds
Description: Isoproterenol had no effect.

[3] = tested on: human salivary gland epithelial cells; experiment: Addition of WNT during cell separation with initial SCM in K-SFM
Protocol: • (1) The cells were homogenized in 10 ml culture medium, spread evenly onto a 100×20 mm culture dish, and then incubated in an incubator at 37° C. and 5% CO2. In this case, the composition of each culture medium is as shown in Table 1. • (2) To perform the subfractionation culturing method (SCM) to isolate epithelial monoclonal cells, after 2 hours, the culture medium containing the cells was transferred to a new 100×20 mm culture dish. This procedure was repeated two more times. • (3) After 24 hours, the dish resulting from (2) was cultured, and the existing culture medium was removed every 2-3 days and replaced it with fresh culture medium. • (4) After confirming the formation of colonies, when the size of a cell cluster forming one colony exceeded 1 cm^2, the culture medium was removed, the cluster was marked with a hydrophobic pen, and the residual culture medium was removed using 1×PBS. 50 to 100 μL of TrypLE+Y27632 was added, and the cells were stored in an incubator at 37° C. and 5% CO2 environment for 15 minutes. • (5) Each cell population detached from the dish by TrypLE was added to a separate 1.5 ml tube, and 1 ml of culture medium was added. • (6) After centrifugation at 300 g for 5 minutes at 4° C., the supernatant was removed, and the cells were homogenized and spread in 250 μL of fresh culture medium into each well of a 48-well plate for each cell population. […]

| Molecule | concentration at which salivary gland epithelial cell growth was best maintained [1] | result of addition to the culture [2] | also measured |
| --- | --- | --- | --- |
| Cc1cccc(-c2nn(C(=S)Nc3ccccc3)cc2-c2ccnc3ccccc23)n1 [A83-01] | 1 µM | universally good results | – |
| C[C@@H](N)[C@H]1CC[C@H](C(=O)Nc2ccncc2)CC1 [Y-27632] | 10 µM | universally good results | – |
| O=C(NOC[C@H](O)CO)c1ccc(F)c(F)c1Nc1ccc(I)cc1F [PD0325901] | – | poor results | – |
| CC(C)Oc1ccc(-c2cnc3c(-c4ccnc5ccccc45)cnn3c2)cc1 [DMH-1] | – | – | concentration giving effects similar to Dermacult's YAL ([2]; LDN193189 replaced with DMH-1): 1 µM |
| Cc1c[nH]c(-c2cnc(NCCNc3ccc(C#N)cn3)nc2-c2ccc(Cl)cc2Cl)n1 [Chir99021] | – | poor results | – |
| c1ccc2c(-c3cnn4cc(-c5ccc(N6CCNCC6)cc5)cnc34)ccnc2c1 [LDN193189] | 0.1 µM | – | – |
| CC(C)NCC(O)c1ccc(O)c(O)c1 (centres unmarked) [Isoproterenol] | – | no effect | – |
| WNT: growth factor WNT3A, Recombinant Human Wnt-3a Protein (protein, UniProt P56704 19-352, looked up) Protein Wnt-3a: SYPIWWSLAVGPQYSSLGSQPILCASIPGLVPKQLRFCRNYVEIMPSVAEGIKIGIQECQHQFRGRRWNCTTVHDSLAIFGPVLDKATRESAFVHAIASAGVAFAVTRSCAEGTAAICGCSSRHQGSPGKGWKWGGCSEDIEFGGMVSREFADARENRPDARSAMNRHNNEAGRQAIASHMHLKCKCHGLSGSCEVKTCWWSQPDFRAIGDFLKDKYDSASEMVVEKHRESRGWVETLRPRYTYFKVPTERDLVYYEASPNFCEPNPETGSFGTRDRTCNVSSHGIDGCDLLCCGRGHNARAERRREKCRCVFHWCCYVSCQECTRVYDVHTCK | – | – | effect on cell growth ([3]; initial addition): rapid cell growth; effect on cell morphology ([3]; prolonged addition): changed the morphology of the cells |
